Where a SMILES comes first, the peptide text is derived from it. Bridges are numbered along the chain shown (N, C = ends). [ ]: non-standard residue; d: D form. Hyp = O=C(O)[C@@H]1C[C@@H](O)CN1; Cit = NC(=O)NCCC[C@H](N)C(=O)O; Pen = CC(C)(S)[C@H](N)C(=O)O; dDab = NCC[C@@H](N)C(=O)O; Orn = NCCC[C@H](N)C(=O)O; Dab = NCC[C@H](N)C(=O)O
Key:
Format in all cases: cell-based
[1] = tested on: human red blood cells (hRBC); settings: red cells of human, 1 h, 200 μg/mL
Summary of the method: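 Peptides at 200 μg/mL incubated 1 h at 37 °C with 20% (v/v) washed human RBC, shaking. Hemolysis from supernatant OD540, expressed as percent of 2.5% Triton X-100 lysis, with PBS as 0%.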

[2] = tested on: Escherichia coli MCR-1 Af 45; settings: MCR-1 Af 45
Summary of the method: (§1)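 The MIC is the lowest peptide concentration, in μg/mL, with no visible growth after 18-20 h incubation at 35 °C. Serial two-fold peptide dilutions in water with 0.002% P-80 final were added to bacteria in cation-adjusted MHII broth, about 5×10^5 CFU/mL, following modified CLSI microdilution.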

[3] = tested on: Escherichia coli ATCC 25922; settings: ATCC 25922
Summary of the method: as §1

[4] = tested on: Klebsiella pneumoniae SSI3010; settings: SSI3010
Summary of the method: as §1

| Compound | Hemolysis at 0.2 g/L [1] [%] | Escherichia coli MCR-1 Af45 MIC [2] [µg/mL] | Escherichia coli ATCC 25922 MIC [3] [µg/mL] | Klebsiella pneumoniae SSI3010 MIC [4] [µg/mL] |
| --- | --- | --- | --- | --- |
| CC[C@H](C)[C@H](NC(=O)[C@@H]1C[C@@H](O)CN1C(=O)[C@@H](N)C(C)C)C(=O)N[C@@H]1C(=O)N[C@@H](Cc2ccc(O)cc2)C(=O)N[C@@H](CCN)C(=O)N[C@@H](CC(N)=O)C(=O)N[C@@H](CCCNC(=N)N)C(=O)N[C@@H](CCN)C(=O)N[C@@H]([C@@H](C)O)C(=O)N[C@H](CCN)C(=O)N[C@@H](CCCCN)C(=O)N[C@@H]([C@@H](C)O)C(=O)N[C@@H](CO)C(=O)N[C@H](C(=O)N[C@@H](Cc2ccc(O)cc2)C(=O)O)CSSC1(C)C [Example 52, Val-Hyp-Ile-Pen-Tyr-Dab-Asn-Arg-Dab-Thr-^DDab-Lys-Thr-Ser-Cys-Tyr] (H-V[Hyp]I[Pen]Y[Dab]NR[Dab]T[dDab]KTSCY-OH; disulfide 4-15) | <1 | 0.25 | 0.25 | 1 |
| CC[C@H](C)[C@H](NC(=O)[C@@H]1C[C@@H](O)CN1C(=O)[C@@H](N)C(C)C)C(=O)N[C@@H]1C(=O)N[C@@H](Cc2ccc(O)cc2)C(=O)N[C@@H](CO)C(=O)N[C@@H](CC(N)=O)C(=O)N[C@@H](CCCNC(=N)N)C(=O)N[C@@H](CCN)C(=O)N[C@@H]([C@@H](C)O)C(=O)N[C@H](CCN)C(=O)N[C@@H](CCCCN)C(=O)N[C@@H](CCCNC(N)=O)C(=O)N[C@@H](CCN)C(=O)N[C@H](C(=O)N[C@@H](Cc2ccc(O)cc2)C(=O)O)CSSC1(C)C [Example 53, Val-Hyp-Ile-Pen-Tyr-Ser-Asn-Arg-Dab-Thr-^DDab-Lys-Cit-Dab-Cys-Tyr] (H-V[Hyp]I[Pen]YSNR[Dab]T[dDab]K[Cit][Dab]CY-OH; disulfide 4-15) | <1 | 0.25 | 0.25 | 1 |
| CC[C@H](C)[C@H](NC(=O)[C@@H]1C[C@@H](O)CN1C(=O)[C@@H](N)C(C)C)C(=O)N[C@@H]1C(=O)N[C@@H](Cc2ccc(O)cc2)C(=O)N[C@@H](CO)C(=O)N[C@@H](CC(N)=O)C(=O)N[C@@H](CCCNC(=N)N)C(=O)N[C@@H](CCN)C(=O)N[C@@H]([C@@H](C)O)C(=O)N[C@H](CCN)C(=O)N[C@@H](CCCCN)C(=O)N[C@@H](CCCNC(=N)N)C(=O)N[C@@H](CCN)C(=O)N[C@H](C(=O)N[C@@H](Cc2ccc(O)cc2)C(=O)O)CSSC1(C)C [Example 54, Val-Hyp-Ile-Pen-Tyr-Ser-Asn-Arg-Dab-Thr-^DDab-Lys-Arg-Dab-Cys-Tyr] (H-V[Hyp]I[Pen]YSNR[Dab]T[dDab]KR[Dab]CY-OH; disulfide 4-15) | <1 | 0.0625 | 0.125 | 0.25 |
| CC[C@H](C)[C@H](NC(=O)[C@@H]1C[C@@H](O)CN1C(=O)[C@@H](N)C(C)C)C(=O)N[C@@H]1C(=O)N[C@@H](Cc2ccc(O)cc2)C(=O)N[C@@H](CO)C(=O)N[C@@H](CC(N)=O)C(=O)N[C@@H](CCCNC(=N)N)C(=O)N[C@@H](CCN)C(=O)N[C@@H]([C@@H](C)O)C(=O)N[C@H](CCN)C(=O)N[C@@H](CCCCN)C(=O)N[C@@H](CCCN)C(=O)N[C@@H](CO)C(=O)N[C@H](C(=O)N[C@@H](Cc2ccc(O)cc2)C(=O)O)CSSC1(C)C [Example 55, Val-Hyp-Ile-Pen-Tyr-Ser-Asn-Arg-Dab-Thr-^DDab-Lys-Orn-Ser-Cys-Tyr] (H-V[Hyp]I[Pen]YSNR[Dab]T[dDab]K[Orn]SCY-OH; disulfide 4-15) | <1 | 0.25 | 0.25 | 0.5 |
| CC[C@H](C)[C@H](NC(=O)[C@@H]1C[C@@H](O)CN1C(=O)[C@@H](N)C(C)C)C(=O)N[C@@H]1C(=O)N[C@@H](Cc2ccc(O)cc2)C(=O)N[C@@H](CCN)C(=O)N[C@@H](CC(N)=O)C(=O)N[C@@H](CCCNC(=N)N)C(=O)N[C@@H](CCN)C(=O)N[C@@H]([C@@H](C)O)C(=O)N[C@H](CCN)C(=O)N[C@@H](CCCCN)C(=O)N[C@@H](CCN)C(=O)N[C@@H](CO)C(=O)N[C@H](C(=O)N[C@@H](Cc2ccc(O)cc2)C(=O)O)CSSC1(C)C [Example 56, Val-Hyp-Ile-Pen-Tyr-Dab-Asn-Arg-Dab-Thr-^DDab-Lys-Dab-Ser-Cys-Tyr] (H-V[Hyp]I[Pen]Y[Dab]NR[Dab]T[dDab]K[Dab]SCY-OH; disulfide 4-15) | <1 | 0.125 | 0.25 | 0.25 |
| CC[C@H](C)[C@H](NC(=O)[C@@H]1C[C@@H](O)CN1C(=O)[C@@H](N)C(C)C)C(=O)N[C@@H]1C(=O)N[C@@H](Cc2ccc(O)cc2)C(=O)N[C@@H](CO)C(=O)N[C@@H](CC(N)=O)C(=O)N[C@@H](CCCNC(=N)N)C(=O)N[C@@H](CCN)C(=O)N[C@@H]([C@@H](C)O)C(=O)N[C@H](CCN)C(=O)N[C@@H](CCCCN)C(=O)N[C@@H](CCN)C(=O)N[C@H](CCN)C(=O)N[C@H](C(=O)N[C@@H](Cc2ccc(O)cc2)C(=O)O)CSSC1(C)C [Example 58, Val-Hyp-Ile-Pen-Tyr-Ser-Asn-Arg-Dab-Thr-^DDab-Lys-Dab-^DDab-Cys-Tyr] (H-V[Hyp]I[Pen]YSNR[Dab]T[dDab]K[Dab][dDab]CY-OH; disulfide 4-15) | <1 | 0.125 | 0.125 | 0.25 |
| CC[C@H](C)[C@H](NC(=O)[C@@H]1C[C@@H](O)CN1C(=O)[C@@H](N)C(C)C)C(=O)N[C@@H]1C(=O)N[C@@H](Cc2ccc(O)cc2)C(=O)N[C@@H](CO)C(=O)N[C@@H](CC(N)=O)C(=O)N[C@@H](CCCNC(=N)N)C(=O)N[C@@H](CCN)C(=O)N[C@@H]([C@@H](C)O)C(=O)N[C@H](CCN)C(=O)N[C@@H](CCCCN)C(=O)N[C@@H](CCN)C(=O)N[C@@H](CCCNC(N)=O)C(=O)N[C@H](C(=O)N[C@@H](Cc2ccc(O)cc2)C(=O)O)CSSC1(C)C [Example 59, Val-Hyp-Ile-Pen-Tyr-Ser-Asn-Arg-Dab-Thr-^DDab-Lys-Dab-Cit-Cys-Tyr] (H-V[Hyp]I[Pen]YSNR[Dab]T[dDab]K[Dab][Cit]CY-OH; disulfide 4-15) | <1 | 0.25 | 0.25 | 0.5 |
| CC[C@H](C)[C@H](NC(=O)[C@@H]1C[C@@H](O)CN1C(=O)[C@@H](N)C(C)C)C(=O)N[C@@H]1C(=O)N[C@@H](Cc2ccc(O)cc2)C(=O)N[C@@H](CO)C(=O)N[C@@H](CC(N)=O)C(=O)N[C@@H](CCCNC(=N)N)C(=O)N[C@@H](CCN)C(=O)N[C@@H]([C@@H](C)O)C(=O)N[C@H](CCN)C(=O)N[C@@H](CCCCN)C(=O)N[C@@H](CCN)C(=O)N[C@@H](Cc2ccc(O)cc2)C(=O)N[C@H](C(=O)N[C@@H](Cc2ccc(O)cc2)C(=O)O)CSSC1(C)C [Example 60, Val-Hyp-Ile-Pen-Tyr-Ser-Asn-Arg-Dab-Thr-^DDab-Lys-Dab-Tyr-Cys-Tyr] (H-V[Hyp]I[Pen]YSNR[Dab]T[dDab]K[Dab]YCY-OH; disulfide 4-15) | <1 | 0.25 | 0.25 | 1 |
| CC[C@H](C)[C@H](NC(=O)[C@@H]1C[C@@H](O)CN1C(=O)[C@@H](N)C(C)C)C(=O)N[C@@H]1C(=O)N[C@@H](Cc2ccc(O)cc2)C(=O)N[C@@H](CO)C(=O)N[C@@H](CC(N)=O)C(=O)N[C@@H](CCCNC(=N)N)C(=O)N[C@@H](CCN)C(=O)N[C@@H]([C@@H](C)O)C(=O)N[C@H](CCN)C(=O)N[C@@H](CCCCN)C(=O)N[C@@H](CCN)C(=O)N[C@@H](CC(N)=O)C(=O)N[C@H](C(=O)N[C@@H](Cc2ccc(O)cc2)C(=O)O)CSSC1(C)C [Example 61, Val-Hyp-Ile-Pen-Tyr-Ser-Asn-Arg-Dab-Thr-^DDab-Lys-Dab-Asn-Cys-Tyr] (H-V[Hyp]I[Pen]YSNR[Dab]T[dDab]K[Dab]NCY-OH; disulfide 4-15) | <1 | 0.25 | 0.25 | 0.5 |
| CC[C@H](C)[C@H](NC(=O)[C@@H]1C[C@@H](O)CN1C(=O)[C@@H](N)C(C)C)C(=O)N[C@@H]1C(=O)N[C@@H](Cc2ccc(O)cc2)C(=O)N[C@@H](CO)C(=O)N[C@@H](CC(N)=O)C(=O)N[C@@H](CCCNC(=N)N)C(=O)N[C@@H](CCN)C(=O)N[C@@H]([C@@H](C)O)C(=O)N[C@H](CCN)C(=O)N[C@@H](CCCCN)C(=O)N[C@@H](CCN)C(=O)N[C@@H](CCCCN)C(=O)N[C@H](C(=O)N[C@@H](Cc2ccc(O)cc2)C(=O)O)CSSC1(C)C [Example 62, Val-Hyp-Ile-Pen-Tyr-Ser-Asn-Arg-Dab-Thr-^DDab-Lys-Dab-Lys-Cys-Tyr] (H-V[Hyp]I[Pen]YSNR[Dab]T[dDab]K[Dab]KCY-OH; disulfide 4-15) | <1 | 0.0625 | 0.125 | 0.25 |
